Where two headings read alike, the source gives them in different places.
Key:
[1] = molecular target: full-length human PLD2 (Homo sapiens (Human), UniProt O14939); assay: Evaluation of human PLD2 enzyme inhibitory activity (Amplex Red / choline oxidase fluorescence); format: biochemical
How it was run: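 Enzyme was N-terminal FLAG-tagged full-length human PLD2 (1-933), expressed in Expi293F cells and anti-FLAG purified. Compound (5% DMSO final) was incubated with enzyme (6 nmol/L solution) and 1,2-diheptanoyl-PC (6 mmol/L solution) in HEPES pH 7.5, KCl, EGTA, MgCl2, NP-40, BSA buffer for 60 min at room temperature. Choline was detected with Amplex Red/choline oxidase/HRP.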

[2] = molecular target: full-length human PLD1 (Homo sapiens (Human), UniProt Q13393); assay: Evaluation of human PLD1 enzyme inhibitory activity (Amplex Red / choline oxidase fluorescence); format: biochemical
How it was run: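 N-terminally FLAG-tagged full-length human PLD1 (1-1036), expressed in Expi293F and FLAG-purified, incubated with compound (5% DMSO final) and 1,2-diheptanoyl-sn-glycero-3-phosphocholine for 60 min at room temperature in HEPES pH 7.5 buffer. Released choline detected by Amplex Red/choline oxidase/HRP fluorescence.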

[3] = full-length human PLD2 enzyme, read-out: PLD2 IC50
[4] = full-length human PLD1 enzyme, read-out: PLD1 IC50
[5] = column 2 of continuation tables 2-12 to 2-14, read-out: human PLD2 enzyme inhibitory activity IC50
[6] = column 1 of continuation tables 2-12 to 2-14, read-out: human PLD1 enzyme inhibitory activity IC50

Chain of full-length human PLD1 (Q13393 other isoform, or with tags, fused parts or gaps): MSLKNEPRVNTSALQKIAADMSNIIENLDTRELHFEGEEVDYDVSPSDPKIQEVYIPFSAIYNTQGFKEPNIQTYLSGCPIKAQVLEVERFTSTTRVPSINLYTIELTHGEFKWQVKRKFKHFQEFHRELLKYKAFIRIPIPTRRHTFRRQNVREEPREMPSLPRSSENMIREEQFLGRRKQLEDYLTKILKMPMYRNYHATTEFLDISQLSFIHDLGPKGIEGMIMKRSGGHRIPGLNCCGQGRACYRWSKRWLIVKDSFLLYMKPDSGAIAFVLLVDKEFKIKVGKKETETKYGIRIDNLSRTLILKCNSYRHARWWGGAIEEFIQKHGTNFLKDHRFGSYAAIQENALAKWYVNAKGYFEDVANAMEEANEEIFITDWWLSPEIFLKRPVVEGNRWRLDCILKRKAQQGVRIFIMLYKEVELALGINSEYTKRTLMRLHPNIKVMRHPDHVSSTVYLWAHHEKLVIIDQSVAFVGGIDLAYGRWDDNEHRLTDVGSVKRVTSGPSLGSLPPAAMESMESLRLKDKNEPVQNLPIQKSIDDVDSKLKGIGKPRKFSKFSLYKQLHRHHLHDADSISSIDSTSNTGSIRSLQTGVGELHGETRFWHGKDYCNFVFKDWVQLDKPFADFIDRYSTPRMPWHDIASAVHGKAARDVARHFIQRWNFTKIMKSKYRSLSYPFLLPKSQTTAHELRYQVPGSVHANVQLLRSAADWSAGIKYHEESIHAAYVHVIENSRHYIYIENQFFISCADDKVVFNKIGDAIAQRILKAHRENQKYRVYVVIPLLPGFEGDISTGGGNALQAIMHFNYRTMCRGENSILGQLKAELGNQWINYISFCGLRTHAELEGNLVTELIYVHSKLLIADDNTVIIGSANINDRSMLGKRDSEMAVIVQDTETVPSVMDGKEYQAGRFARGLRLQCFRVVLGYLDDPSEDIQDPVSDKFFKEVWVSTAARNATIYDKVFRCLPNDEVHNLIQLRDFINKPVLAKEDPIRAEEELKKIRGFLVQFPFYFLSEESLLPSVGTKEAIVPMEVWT
Chain of full-length human PLD2 (O14939 whole entry): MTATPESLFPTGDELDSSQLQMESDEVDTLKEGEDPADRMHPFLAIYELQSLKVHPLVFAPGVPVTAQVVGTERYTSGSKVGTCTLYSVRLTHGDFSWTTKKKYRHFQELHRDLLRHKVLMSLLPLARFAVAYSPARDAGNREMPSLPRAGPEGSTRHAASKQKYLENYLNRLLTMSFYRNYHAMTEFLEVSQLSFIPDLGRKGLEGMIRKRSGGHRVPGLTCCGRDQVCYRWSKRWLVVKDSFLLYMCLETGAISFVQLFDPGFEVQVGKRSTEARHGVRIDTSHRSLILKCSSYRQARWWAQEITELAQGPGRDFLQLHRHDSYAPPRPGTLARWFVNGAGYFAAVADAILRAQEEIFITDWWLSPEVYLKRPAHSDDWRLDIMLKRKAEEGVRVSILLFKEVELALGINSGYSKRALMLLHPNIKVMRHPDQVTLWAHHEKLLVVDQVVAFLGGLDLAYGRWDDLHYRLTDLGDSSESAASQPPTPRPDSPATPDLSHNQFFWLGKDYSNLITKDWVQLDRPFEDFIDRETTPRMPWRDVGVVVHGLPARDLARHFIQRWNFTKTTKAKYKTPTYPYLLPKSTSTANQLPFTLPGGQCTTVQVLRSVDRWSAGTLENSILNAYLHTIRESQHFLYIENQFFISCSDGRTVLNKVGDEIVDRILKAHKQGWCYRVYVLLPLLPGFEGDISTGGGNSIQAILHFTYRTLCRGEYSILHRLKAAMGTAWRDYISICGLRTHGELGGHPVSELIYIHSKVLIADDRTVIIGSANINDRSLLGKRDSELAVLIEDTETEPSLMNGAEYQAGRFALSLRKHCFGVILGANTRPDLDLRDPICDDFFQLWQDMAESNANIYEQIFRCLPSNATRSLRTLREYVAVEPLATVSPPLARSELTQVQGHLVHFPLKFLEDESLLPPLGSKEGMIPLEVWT

## Cc1cc(F)ccc1C1=NNC(=O)O[C@]12CC[C@@H](C[C@H](C)NC(=O)N1CCCC1)CC2 [Example 136]
[1]; [3]
  IC50: 170 nM
[2]; [4]
  IC50: 155 nM

## CSc1ccc(C2=NNC(=O)OC23CCN(C[C@H](C)NC(=O)c2cc(C)n[nH]2)CC3)c(Cl)c1 [Example 127]
[1]; [3]
  IC50: < 10 nM
[2]; [4]
  IC50: 25 nM

## COc1cc(C)c(C2=NNC(=O)O[C@]23CC[C@@H](C[C@H](C)NC(=O)NCc2ccccn2)CC3)cn1 [Example 261]
[1]; [3]
  IC50: 313 nM
[2]; [4]
  IC50: 168 nM

## CNC(=O)C(=O)N[C@@H](C)C[C@H]1CC[C@]2(CC1)OC(=O)NN=C2c1ccc(OC)cc1Br [Example 58]
[1]; [3]
  IC50: < 10 nM
[2]; [4]
  IC50: 14 nM

## Cc1ccncc1C1=NNC(=O)O[C@]12CC[C@@H](C[C@H](C)NC(=O)c1cc3ccccc3o1)CC2 [Example 114]
[1]; [3]
  IC50: < 10 nM
[2]; [4]
  IC50: 13 nM

## C[C@@H](C[C@H]1CC[C@]2(CC1)OC(=O)NN=C2c1cccnc1)NC(=O)c1cc2cc(F)ccc2[nH]1 [Example 15]
[1]; [3]
  IC50: < 10 nM
[2]; [4]
  IC50: 25 nM

## C[C@@H](C[C@H]1CC[C@]2(CC1)OC(=O)NN=C2c1ccc(F)cc1Br)NC(=O)[C@@H](C)O [Example 28]
[1]; [3]
  IC50: 303 nM
[2]; [4]
  IC50: 341 nM

## COC(=O)N[C@@H](C)C[C@H]1CC[C@]2(CC1)OC(=O)NN=C2c1ccc(F)cc1C [Example 156]
[1]; [3]
  IC50: 412 nM
[2]; [4]
  IC50: 236 nM

## CNC(=O)C(=O)N[C@@H](C)CN1CCC2(CC1)OC(=O)NN=C2c1cc(C#N)ccc1Br [Example 300]
[1]; [3]
  IC50: < 10 nM
[2]; [4]
  IC50: 38 nM

## Cc1cc(C(=O)NC(C)CN2CCC3(CC2)OC(=O)NN=C3c2cccc(F)c2Br)[nH]n1 (stereo not shown) [Example 2-031]
[1]; [3]
  IC50: < 10 nM
[2]; [4]
  IC50: 19 nM

## Cc1cccnc1C1=NNC(=O)O[C@]12CC[C@@H](C[C@H](C)NC(=O)c1cc(Cl)no1)CC2 [Example 148]
[1]; [3]
  IC50: 18 nM
[2]; [4]
  IC50: 20 nM

## C[C@@H](C[C@H]1CC[C@]2(CC1)OC(=O)NN=C2c1cc(C#N)ccc1Br)NC(=O)c1cn(C)cn1 [Example 2-071]
[1]; [3]
  IC50: < 10 nM
[2]; [4]
  IC50: 13 nM

## CNC(=O)C(=O)N[C@@H](C)C[C@]1(C#N)CC[C@@]2(CC1)OC(=O)NN=C2c1cc(OC)ncc1Br [Example 2-077]
[1]; [3]
  IC50: < 10 nM
[2]; [4]
  IC50: 15 nM

## [2H]C([2H])([2H])NC(=O)C(=O)N[C@@H](C)C[C@]1(C#N)CC[C@@]2(CC1)OC(=O)NN=C2c1cccc(F)c1Br [Example 2-152]
[1]; [5]
  IC50: < 10 nM
[2]; [6]
  IC50: 16 nM

## C[C@@H](CN1CCC2(CC1)OC(=O)NN=C2c1cc(C#N)ccc1Br)NC(=O)c1ccccc1C(F)(F)F [Example 2-029]
[1]; [3]
  IC50: 8410 nM
[2]; [4]
  IC50: 1510 nM

## CNC(=O)C(=O)N[C@@H](C)C[C@H]1CC[C@]2(CC1)OC(=O)NN=C2c1cc(OC(F)(F)F)ccc1Br [Example 294]
[1]; [3]
  IC50: < 10 nM
[2]; [4]
  IC50: 11 nM

## C[C@@H](C[C@H]1CC[C@]2(CC1)OC(=O)NN=C2c1ccc(F)cc1Br)NC(=O)OC(C)(C)C [Example 34]
[1]; 10 μM compound, read-out: PLD2 inhibition rate at 10 μM
  inhibition at 10 µM: 17%
[1]; read-out: inhibition rate of PLD2 at 10 μM compound
  inhibition at 10 µM: 17%
[2]; 10 μM compound, read-out: PLD1 inhibition rate at 10 μM
  inhibition at 10 µM: 36%
[2]; read-out: inhibition rate of PLD1 at 10 μM compound
  inhibition at 10 µM: 36%

## C[C@@H](C[C@H]1CC[C@]2(CC1)OC(=O)NN=C2c1ccc(F)cc1Br)NC(=O)N1CCC2(CC2)C1 [Example 282]
[1]; [3]
  IC50: 146 nM
[2]; [4]
  IC50: 97 nM

## CNC(=O)C(=O)N[C@@H](C)CC1CCC2(CC1)OC(=O)NN=C2c1ccncc1C (mixture of isomers) [Example 125]
[1]; [3]
  IC50: 57 nM
[2]; [4]
  IC50: 40 nM

## C[C@@H](C[C@H]1CC[C@]2(CC1)OC(=O)NN=C2c1ccc(F)cc1Br)NC(=O)c1cc2cc(F)ccc2[nH]1 [Example 13]
[1]; [3]
  IC50: < 10 nM
[2]; [4]
  IC50: 36 nM

## CNC(=O)C(=O)N[C@@H](C)C[C@H]1CC[C@]2(CC1)OC(=O)NN=C2c1cc(OCC(C)(C)O)ccc1Br [Example 2-014]
[1]; [3]
  IC50: < 10 nM
[2]; [4]
  IC50: 22 nM

## C[C@@H](C[C@H]1CC[C@]2(CC1)OC(=O)NN=C2c1ccc(F)cc1Br)NC(=O)C1CC1c1ccccc1 (single isomer, unassigned) [Example 39]
[1]; [3]
  IC50: 24 nM
[2]; [4]
  IC50: 93 nM

## C[C@@H](C[C@H]1CC[C@]2(CC1)OC(=O)NN=C2c1ccc(F)cc1Cl)NC(=O)c1cc2cc(F)ccc2o1 [Example 61]
[1]; [3]
  IC50: 11 nM
[2]; [4]
  IC50: 14 nM

## [2H]C([2H])([2H])NC(=O)C(=O)N[C@@H](C)C[C@]1(C#N)CC[C@@]2(CC1)OC(=O)NN=C2c1cc(OC(F)(F)F)ccc1Br [Example 2-132]
[1]; [5]
  IC50: < 10 nM
[2]; [6]
  IC50: 11 nM

## CNC(=O)C(=O)N[C@@H](C)C[C@]1(F)CC[C@@]2(CC1)OC(=O)NN=C2c1cc(C#N)ccc1Br [Example 310]
[1]; [3]
  IC50: < 10 nM
[2]; [4]
  IC50: 14 nM

## C[C@@H](CN1CCC2(CC1)OC(=O)NN=C2c1ccc(C#N)cc1Br)NC(=O)c1cncn1C [Example 2-059]
[1]; [3]
  IC50: 505 nM
[2]; [4]
  IC50: 731 nM

## C[C@@H](C[C@H]1CC[C@]2(CC1)OC(=O)NN=C2c1ccc(F)cc1Br)NC(=O)/C=C/CN(C)C [Example 279]
[1]; [3]
  IC50: 44 nM
[2]; [4]
  IC50: 86 nM

## CNC(=O)C(=O)N[C@@H](C)C[C@H]1CC[C@]2(CC1)OC(=O)NN=C2c1cnc(O)cc1C [Example 162]
[1]; [3]
  IC50: 536 nM
[2]; [4]
  IC50: 322 nM

## CNC(=O)C(=O)N[C@H](C)CN1CCC2(CC1)OC(=O)NN=C2c1ccc(F)cc1Br [Example 2-011]
[1]; [3]
  IC50: 2940 nM
[2]; [4]
  IC50: 2110 nM

## CNC(=O)C(=O)N[C@@H](C)C[C@H]1CC[C@]2(CC1)OC(=O)NN=C2c1cccc(C#N)c1Br [Example 315]
[1]; [3]
  IC50: 24 nM
[2]; [4]
  IC50: 25 nM

## Cc1cc(C(=O)N[C@@H](C)CN2CCC3(CC2)OC(=O)NN=C3c2ccc(F)cc2Cl)[nH]n1 [Example 93]
[1]; [3]
  IC50: < 10 nM
[2]; [4]
  IC50: 32 nM

## CNC(=O)C(=O)N[C@@H](C)CN1CCC2(CC1)OC(=O)NN=C2c1cc(C(=O)NC)ccc1Br [Example 2-037]
[1]; [3]
  IC50: 13 nM
[2]; [4]
  IC50: 43 nM

## COc1cc(C)c(C2=NNC(=O)O[C@]23CC[C@@H](C[C@H](C)NC(=O)N2CCn4nccc4C2)CC3)cn1 [Example 237]
[1]; [3]
  IC50: < 10 nM
[2]; [4]
  IC50: 34 nM

## Cc1cc(C(=O)N[C@@H](C)C[C@H]2CC[C@]3(CC2)OC(=O)NN=C3c2cccc(C#N)c2Br)[nH]n1 [Example 317]
[1]; [3]
  IC50: 65 nM
[2]; [4]
  IC50: 71 nM

## C[C@@H](C[C@H]1CC[C@]2(CC1)OC(=O)NN=C2c1ccc(F)cc1Br)NC(=O)C(=O)NC1CC1 [Example 203]
[1]; [3]
  IC50: < 10 nM
[2]; [4]
  IC50: 12 nM

## Cc1cc(Br)ccc1C1=NNC(=O)O[C@]12CC[C@@H](C[C@H](C)NC(=O)NC1CC1)CC2 [Example 210]
[1]; [3]
  IC50: 1090 nM
[2]; [4]
  IC50: 296 nM

## Cc1cc(C(=O)N[C@@H](C)CN2CCC3(CC2)OC(=O)NN=C3c2ccc(F)cc2Br)[nH]n1 [Example 3]
[1]; [3]
  IC50: < 10 nM
[2]; [4]
  IC50: 27 nM

## C[C@@H](CN1CCC2(CC1)OC(=O)NN=C2c1cc(C#N)ccc1Cl)NC(=O)[C@H](O)C(F)(F)F [Example 2-009]
[1]; [3]
  IC50: 1040 nM
[2]; [4]
  IC50: 2150 nM

## Cc1cc(C(=O)N[C@@H](C)CN2CCC3(CC2)OC(=O)NN=C3c2cc(C#N)ccc2Br)[nH]n1 [Example 312]
[1]; [3]
  IC50: < 10 nM
[2]; [4]
  IC50: 29 nM

## CNC(=O)C(=O)N[C@@H](C)C[C@H]1CC[C@]2(CC1)OC(=O)NN=C2c1ccc(S(C)(=O)=O)cc1 [Example 10]
[1]; [3]
  IC50: 106 nM
[2]; [4]
  IC50: 92 nM

From patent US20240101572A1, “DIHYDROOXADIAZINONE COMPOUND AND PHARMACEUTICAL USE THEREOF” (Japan Tobacco Inc., priority 2022, published 2024)
